In the supplement of paper PMC11451515:

Test system: SEM cells
Assay: cell viability relative to DMSO control; higher = less cytotoxic
Details: 48 h
In short: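 NOMO1, SEM and P12-Ichikawa leukemia cells spent at least four passages adapting to each medium before use. They were seeded at 500 cells/well (NOMO1, SEM) or 1000 cells/well (P12-Ichikawa) in 5 μl in 1536-well plates and pin-dosed with library compounds in DMSO at 11 threefold steps from 47 μM down to 0.79 nM. After 48 h at 37°C, CellTiter-Glo One luminescence was read. Viability is reported as a percentage of the DMSO wells on each plate, with cell-free wells as background.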

[1] = HPLM + 10% dialyzed FBS, 0.000781 µM
[2] = HPLM + 10% dialyzed FBS, 0.00234 µM
[3] = HPLM + 10% dialyzed FBS, 0.00702 µM
[4] = HPLM + 10% dialyzed FBS, 0.0211 µM
[5] = HPLM + 10% dialyzed FBS, 0.0632 µM
[6] = HPLM + 10% dialyzed FBS, 0.19 µM
[7] = HPLM + 10% dialyzed FBS, 0.569 µM
[8] = HPLM + 10% dialyzed FBS, 1.71 µM
[9] = HPLM + 10% dialyzed FBS, 5.12 µM
[10] = HPLM + 10% dialyzed FBS, 15.4 µM
[11] = HPLM + 10% dialyzed FBS, 46.1 µM
[12] = RPMI 5 mM glucose + 10% FBS, 0.000781 µM
[13] = RPMI 5 mM glucose + 10% FBS, 0.00234 µM
[14] = RPMI 5 mM glucose + 10% FBS, 0.00702 µM
[15] = RPMI 5 mM glucose + 10% FBS, 0.0211 µM
[16] = RPMI 5 mM glucose + 10% FBS, 0.0632 µM
[17] = RPMI 5 mM glucose + 10% FBS, 0.19 µM
[18] = RPMI 5 mM glucose + 10% FBS, 0.569 µM
[19] = RPMI 5 mM glucose + 10% FBS, 1.71 µM
[20] = RPMI 5 mM glucose + 10% FBS, 5.12 µM
[21] = RPMI 5 mM glucose + 10% FBS, 15.4 µM
[22] = RPMI 5 mM glucose + 10% FBS, 46.1 µM
[23] = RPMI 5 mM glucose + 10% dialyzed FBS, 0.000781 µM
[24] = RPMI 5 mM glucose + 10% dialyzed FBS, 0.00234 µM
[25] = RPMI 5 mM glucose + 10% dialyzed FBS, 0.00702 µM
[26] = RPMI 5 mM glucose + 10% dialyzed FBS, 0.0211 µM
[27] = RPMI 5 mM glucose + 10% dialyzed FBS, 0.0632 µM
[28] = RPMI 5 mM glucose + 10% dialyzed FBS, 0.19 µM
[29] = RPMI 5 mM glucose + 10% dialyzed FBS, 0.569 µM
[30] = RPMI 5 mM glucose + 10% dialyzed FBS, 1.71 µM
[31] = RPMI 5 mM glucose + 10% dialyzed FBS, 5.12 µM
[32] = RPMI 5 mM glucose + 10% dialyzed FBS, 15.4 µM
[33] = RPMI 5 mM glucose + 10% dialyzed FBS, 46.1 µM

| SMILES | cell viability [1] [%] | cell viability [2] [%] | cell viability [3] [%] | cell viability [4] [%] | cell viability [5] [%] | cell viability [6] [%] | cell viability [7] [%] | cell viability [8] [%] | cell viability [9] [%] | cell viability [10] [%] | cell viability [11] [%] | cell viability [12] [%] | cell viability [13] [%] | cell viability [14] [%] | cell viability [15] [%] | cell viability [16] [%] | cell viability [17] [%] | cell viability [18] [%] | cell viability [19] [%] | cell viability [20] [%] | cell viability [21] [%] | cell viability [22] [%] | cell viability [23] [%] | cell viability [24] [%] | cell viability [25] [%] | cell viability [26] [%] | cell viability [27] [%] | cell viability [28] [%] | cell viability [29] [%] | cell viability [30] [%] | cell viability [31] [%] | cell viability [32] [%] | cell viability [33] [%] |
| --- | --- | --- | --- | --- | --- | --- | --- | --- | --- | --- | --- | --- | --- | --- | --- | --- | --- | --- | --- | --- | --- | --- | --- | --- | --- | --- | --- | --- | --- | --- | --- | --- | --- |
| CCCCC(C=O)NC(=O)C(CC(C)C)NC(=O)OCc1ccccc1 (stereo unspecified) | 93.8 | 99.8 | 90.6 | 105 | 98.5 | 58 | 99.1 | 102 | 92.1 | 81.1 | 57 | 110 | 87.2 | 94.2 | 102 | 110 | 88.7 | 91.8 | 90.9 | 84.3 | 85.1 | 52.6 | 93.8 | 82.8 | 78.1 | 89.1 | 86.2 | 66.2 | 96.7 | 94.5 | 84.8 | 71.1 | 47.9 |
| COC/1=C/C=C2\C(=C/C1=O)[C@H](CCC3=CC(=C(OC)C(=C23)OC)OC)NC(C)=O | 32.1 | 25.8 | 26.1 | 23.7 | 18.7 | 14.5 | 11 | 11.5 | 10.1 | 10 | 3.47 | 19 | 19.2 | 15.9 | 15.9 | 12.3 | 8.3 | 5.66 | 6.98 | 5.01 | 4.81 | 2.96 | 20.9 | 20.5 | 21.6 | 21.8 | 10.7 | 8.08 | 7.02 | 5.24 | 4.72 | 4.63 | 2.48 |
| O=C1Nc2ccc(I)cc2/C1=C/c1cc(Br)c(O)c(Br)c1 | 98.4 | 107 | 103 | 104 | 101 | 111 | 107 | 96.5 | 105 | 94.6 | 76.8 | 113 | 113 | 105 | 112 | 102 | 115 | 118 | 110 | 108 | 88.4 | 67.5 | 115 | 109 | 115 | 111 | 121 | 106 | 121 | 110 | 104 | 89 | 62.5 |
| O=C\1N(N\C=C1[N]2C=CN=N2)C3=NC=NC(=C3)N4CCOCC4 | 58.1 | 74.2 | 66.2 | 69.5 | 56 | 46.9 | 20.1 | 36.9 | 21.7 | 15.8 | 12.1 | 56.6 | 102 | 108 | 95.5 | 46.8 | 28.6 | 13.6 | 13.3 | 19.2 | 14.5 | 16.8 | 52.3 | 77.4 | 74.1 | 69.3 | 66.5 | 42.8 | 17.3 | 32.8 | 19.5 | 19.9 | 16.7 |
| Oc1cccc(-c2nc(N3CCOCC3)c3oc4ncccc4c3n2)c1 | 108 | 96.3 | 102 | 99.1 | 92.6 | 80.7 | 54.8 | 54.5 | 61.5 | 57.3 | 5.23 | 102 | 102 | 120 | 106 | 93.3 | 77.9 | 58.4 | 60.9 | 8.23 | 6.63 | 4.34 | – | – | – | – | – | – | – | – | – | – | – |
| c1ccc(CNc2nc(N3CCOc4ccccc43)nc3c2CCCC3)cc1 | 87 | 94.6 | 88.7 | 96.9 | 102 | 109 | 93.3 | 106 | 98.5 | 89.9 | 83.2 | 91 | 88.6 | 87 | 89.4 | 101 | 96.2 | 89.5 | 95.9 | 91.4 | 77.7 | 71 | 75 | 91.3 | 96.5 | 96.8 | 95.5 | 103 | 106 | 108 | 94.5 | 82.7 | 82.9 |
| CC/1=C(/C(CC(=O)N1)C2=CC=C(C=C2)C(F)(F)F)C(=O)NC3=C(F)C=C4[NH]N=CC4=C3 (stereo unspecified) | 81.9 | 94.4 | 92.3 | 104 | 91.8 | 89.4 | 95.9 | 89.3 | 114 | 29.9 | 26.5 | 102 | 101 | 94.2 | 94.7 | 84.3 | 92.8 | 108 | 92 | 108 | 31.9 | 31.8 | 97.9 | 80.9 | 102 | 84 | 96.8 | 97.1 | 100 | 96.7 | 109 | 28.2 | 32 |
| C[C@]12CC[C@H]3[C@@H](CCC/4=C/C(=O)CC[C@]34C)[C@@H]1CC[C@@H]2O | 94.2 | 120 | 124 | 128 | 118 | 139 | 122 | 120 | 136 | 125 | 130 | 107 | 110 | 118 | 112 | 139 | 129 | 118 | 133 | 140 | 157 | 109 | 129 | 113 | 120 | 121 | 112 | 130 | 153 | 134 | 130 | 131 | 145 |
| CN1C(=O)C[C@H](C(=O)N[C@@H](Cc2cnc[nH]2)C(=O)N2CCC[C@H]2C(N)=O)NC1=O | 117 | 108 | 142 | 121 | 111 | 127 | 122 | 120 | 116 | 97.4 | 74.3 | – | – | – | – | – | – | – | – | – | – | – | 104 | 118 | 120 | 122 | 105 | 112 | 104 | 103 | 104 | 98.1 | 50.1 |
| COc1cc2nc(-c3cc(F)ccc3O)nc(N[C@@H]3CNC[C@H]3C(C)(C)O)c2cc1OC | 57.3 | 96.4 | 90.5 | 97.4 | 89.5 | 59.6 | 45.6 | 37.2 | 28.3 | 16.1 | 7.01 | 59.9 | 101 | 99.6 | 94.6 | 90.4 | 62.3 | 54.6 | 35.7 | 25.6 | 14.5 | 5.78 | 46.9 | 94.4 | 80.5 | 86.5 | 64 | 45.2 | 34.6 | 30.6 | 15.8 | 14.3 | 6.75 |
| CC[C@@]1(O)C(=O)OC\C2=C1\C=C\3N(CC4=C3N=C5C=CC=CC5=C4)C2=O | 126 | 116 | 110 | 103 | 40.3 | 14.9 | 7.26 | 4.92 | 4.54 | 4.65 | 5.06 | 105 | 86.8 | 87.2 | 55.3 | 15.3 | 11.4 | 6.29 | 3.5 | 3.72 | 3.35 | 4.07 | 127 | 119 | 105 | 77.2 | 28.1 | 13.4 | 7.26 | 4.41 | 4.16 | 4.15 | 4.83 |
| CN[C@@H](C)C(=O)N[C@H]1CN(C(=O)CC(C)C)CC[C@H]2CC[C@@H](C(=O)NC(c3ccccc3)c3ccccc3)N2C1=O | 76.3 | 90.5 | 98.3 | 100 | 98.1 | 93.7 | 99 | 103 | 99.9 | 71.4 | 41 | 107 | 103 | 105 | 110 | 104 | 102 | 96.7 | 83.5 | 74.2 | 56.5 | 38.5 | 95.5 | 86.1 | 92.8 | 104 | 106 | 97.9 | 102 | 95.1 | 77.7 | 61 | 36.2 |
| CC[C@H](C)C(=O)O[C@H]1C[C@H](O)\C=C2\C=C/[C@H](C)[C@H](CC[C@@H](O)C[C@@H](O)CC(O)=O)[C@@H]12 | 118 | 114 | 116 | 111 | 125 | 129 | 121 | 126 | 103 | 106 | 92.9 | 98.7 | 110 | 121 | 124 | 113 | 126 | 107 | 118 | 95.8 | 108 | 102 | 123 | 109 | 121 | 125 | 129 | 109 | 121 | 110 | 119 | 120 | 86.2 |
| O=C(O)/C=C/c1ccc(O)c(O)c1 | 90.4 | 102 | 93.6 | 122 | 106 | 93.6 | 98.5 | 105 | 112 | 78 | 20.2 | 108 | 96.8 | 90.3 | 114 | 110 | 90.6 | 109 | 106 | 98.5 | 39.1 | 5.15 | 99.2 | 117 | 111 | 112 | 103 | 114 | 104 | 91.7 | 105 | 50 | 5.58 |
| Nc1nc(N)c2nc(-c3cccc(O)c3)c(-c3cccc(O)c3)nc2n1 | 110 | 120 | 120 | 135 | 111 | 125 | 104 | 106 | 94.5 | 35 | 8.06 | 124 | 125 | 125 | 129 | 103 | 118 | 120 | 110 | 108 | 73.8 | 13.8 | 119 | 99.4 | 129 | 106 | 105 | 114 | 98.8 | 96.5 | 97.2 | 61 | 18.2 |
| CN1CCCC(CC1)N2\N=C(CC3=CC=C(Cl)C=C3)/C4=C(C=CC=C4)C2=O (stereo unspecified) | 92.9 | 110 | 104 | 114 | 110 | 112 | 99.1 | 106 | 111 | 101 | 74.9 | 72.4 | 78.3 | 71.9 | 79.5 | 81.8 | 94.8 | 90.2 | 98.9 | 83.8 | 80.6 | 73.1 | 91.7 | 108 | 96.2 | 102 | 112 | 105 | 108 | 121 | 96.5 | 109 | 97.6 |
